In US20260078135A1, “POLYCYCLIC QUINAZOLINES FOR INHIBITION OF ERBB2” (Enliven Inc., priority 2022, published 2026):
Where a name gives a salt, the structure may show the parent alone.

How the values were obtained:
[1] = biological target: T1, phosphorylated ERBB2 (pERBB2) (Homo sapiens, UniProt P04626); assay: Detection of phosphorylated ERBB2 (pERBB2) by ELISA in BT-474 cells; type: cell-based; settings: four hour incubation
T1 construct: endogenous in cells; host or cells: BT-474
In short: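 BT-474 cells were treated with compounds (fourfold dilutions, 10 μM to 0.01 nM final) for 4 h at 37 °C, then lysed. pERBB2 in lysates was quantified by ELISA with an HRP anti-phosphotyrosine detection antibody and TMB read at 450 nm; % relative activity was normalized to no-cell and 0.1% DMSO controls.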

[2] = biological target: T2, phosphorylated EGFR (pEGFR) (Homo sapiens, UniProt P00533); assay: Detection of phosphorylated EGFR (pEGFR) by AlphaLISA in EGF-stimulated A431 cells; type: cell-based; settings: A431 cells (10% FBS), 4 hours incubation, EGF 30 ng/mL for 10 minutes
T2 construct: performed to measure phosphorylated EGFR levels using A431 cells (10% FBS); endogenous in cells; host or cells: A431
T2 sequence (P00533 25-1210): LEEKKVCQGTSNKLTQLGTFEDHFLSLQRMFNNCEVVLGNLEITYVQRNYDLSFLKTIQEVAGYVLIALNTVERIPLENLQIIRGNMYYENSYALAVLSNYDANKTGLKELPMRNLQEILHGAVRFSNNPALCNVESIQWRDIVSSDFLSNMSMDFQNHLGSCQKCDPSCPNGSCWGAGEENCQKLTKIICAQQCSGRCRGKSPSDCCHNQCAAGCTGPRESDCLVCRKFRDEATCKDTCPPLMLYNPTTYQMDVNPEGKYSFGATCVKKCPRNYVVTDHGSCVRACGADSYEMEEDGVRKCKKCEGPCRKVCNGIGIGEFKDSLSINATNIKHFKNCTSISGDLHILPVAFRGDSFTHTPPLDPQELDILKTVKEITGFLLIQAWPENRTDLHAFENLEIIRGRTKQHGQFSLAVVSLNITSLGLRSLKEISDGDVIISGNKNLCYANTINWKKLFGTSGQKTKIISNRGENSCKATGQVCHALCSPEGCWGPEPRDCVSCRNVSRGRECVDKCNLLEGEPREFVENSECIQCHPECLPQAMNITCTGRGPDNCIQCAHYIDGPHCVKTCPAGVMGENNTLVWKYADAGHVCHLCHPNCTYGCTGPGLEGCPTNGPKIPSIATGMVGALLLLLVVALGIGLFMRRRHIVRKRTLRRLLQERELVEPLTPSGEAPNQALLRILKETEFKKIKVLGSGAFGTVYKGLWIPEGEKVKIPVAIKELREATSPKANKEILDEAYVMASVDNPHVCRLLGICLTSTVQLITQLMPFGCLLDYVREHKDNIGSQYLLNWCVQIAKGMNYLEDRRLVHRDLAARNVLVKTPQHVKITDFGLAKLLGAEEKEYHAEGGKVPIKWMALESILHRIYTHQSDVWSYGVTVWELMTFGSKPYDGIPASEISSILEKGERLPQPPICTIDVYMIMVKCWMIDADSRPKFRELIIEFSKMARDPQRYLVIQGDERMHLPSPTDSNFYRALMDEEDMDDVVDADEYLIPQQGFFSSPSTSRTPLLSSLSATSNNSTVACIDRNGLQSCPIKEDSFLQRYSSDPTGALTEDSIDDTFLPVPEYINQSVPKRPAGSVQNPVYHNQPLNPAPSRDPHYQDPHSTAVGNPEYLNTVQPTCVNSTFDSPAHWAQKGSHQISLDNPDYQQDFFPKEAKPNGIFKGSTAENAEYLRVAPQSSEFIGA
In short: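 A431 cells in 10% FBS were preincubated with compound for 4 h at 37 °C, then stimulated with 30 ng/mL EGF for 10 min and lysed. pEGFR read by AlphaLISA. % inhibition normalised to DMSO and staurosporine controls; IC50 from four-parameter curve fit.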

Ba/F3 ERBB2 YVMA = Ba/F3 ERBB2 YVMA (Homo sapiens, UniProt P04626, DUP772-775, cells depend on it); assay: Cell viability assay (CellTiter Glo), Ba/F3 cells engineered to express ERBB2 YVMA; type: cell-based, mouse; settings: Ba/F3 cells expressing human ERBB2 YVMA mutant, 72 hours, read-out: Ba/F3 ERBB2 YVMA, IC50
Sequence of Ba/F3 ERBB2 YVMA (P04626 with tags, fused parts or gaps DUP772-775): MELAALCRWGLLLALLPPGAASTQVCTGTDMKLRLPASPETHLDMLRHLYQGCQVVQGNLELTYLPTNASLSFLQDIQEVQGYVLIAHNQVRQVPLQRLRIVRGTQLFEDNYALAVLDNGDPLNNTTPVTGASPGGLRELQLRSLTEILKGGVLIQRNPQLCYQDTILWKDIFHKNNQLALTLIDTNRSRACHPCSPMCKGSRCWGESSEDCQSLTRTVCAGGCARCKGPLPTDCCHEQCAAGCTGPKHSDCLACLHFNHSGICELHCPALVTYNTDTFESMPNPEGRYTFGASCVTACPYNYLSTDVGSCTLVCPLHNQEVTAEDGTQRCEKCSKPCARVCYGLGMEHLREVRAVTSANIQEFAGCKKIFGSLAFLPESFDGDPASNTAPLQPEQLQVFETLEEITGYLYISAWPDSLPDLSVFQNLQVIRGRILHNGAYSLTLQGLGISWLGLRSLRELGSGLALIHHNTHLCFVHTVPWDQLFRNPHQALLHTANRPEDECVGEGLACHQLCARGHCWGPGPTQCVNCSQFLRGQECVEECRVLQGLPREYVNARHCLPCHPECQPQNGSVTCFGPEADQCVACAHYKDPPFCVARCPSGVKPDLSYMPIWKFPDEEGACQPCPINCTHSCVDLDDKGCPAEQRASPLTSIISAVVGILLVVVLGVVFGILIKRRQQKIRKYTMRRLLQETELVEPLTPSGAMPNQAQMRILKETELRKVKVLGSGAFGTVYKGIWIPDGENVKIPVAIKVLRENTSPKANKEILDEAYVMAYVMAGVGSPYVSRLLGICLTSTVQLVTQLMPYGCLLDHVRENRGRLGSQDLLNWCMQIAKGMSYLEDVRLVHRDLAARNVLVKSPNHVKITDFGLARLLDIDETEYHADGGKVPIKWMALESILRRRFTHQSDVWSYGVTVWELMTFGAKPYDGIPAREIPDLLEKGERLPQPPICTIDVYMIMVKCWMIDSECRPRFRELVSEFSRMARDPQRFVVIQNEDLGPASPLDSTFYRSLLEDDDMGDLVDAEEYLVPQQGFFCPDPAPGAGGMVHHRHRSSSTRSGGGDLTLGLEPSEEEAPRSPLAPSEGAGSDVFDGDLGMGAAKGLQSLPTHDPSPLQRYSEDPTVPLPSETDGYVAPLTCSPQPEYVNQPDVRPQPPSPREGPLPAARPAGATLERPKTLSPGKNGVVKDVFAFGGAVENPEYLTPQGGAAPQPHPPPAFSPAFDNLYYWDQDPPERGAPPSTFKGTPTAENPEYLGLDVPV
Protocol: Cells were treated with compounds, and cell viability was measured as a metric of kinase inhibition.
BT-474, A431, MDA-MB-175VII, NCI-H1781, MCF7, and Ba/F3 cell lines were tested. The Ba/F3 cell line is IL-3-dependent mouse cell line derived from the C3H mouse strain. Ba/F3 cell lines were engineered to express human ERBB2 or EGFR kinases, rendering the cells IL-3 independent. The lines were generated via retroviral transduction utilizing a Moloney murine leukemia virus (MMLV) promoter, and constructs are stably integrated into the cell genome. The sequences of the ERBB2 and EGFR genes used were NCBI Reference Sequences NM_004448.3 and NM_005228.3, respectively.
BT-474, A431, MDA-MB-175VII, NCI-H1781 and MCF7 cells were grown in the appropriate growth medium as described in Table B2 below, and harvested at 50-80% confluence. BT-474, A431, MDA-MB-175VII, NCI-H1781 and MCF7 cells were counted and seeded at 2,000 or 1,500 cells per well in 384-well tissue culture plates (see Table B2). Similarly, Ba/F3 cell lines engineered to express EGFR, ERBB2, or ERBB2 mutants were grown, harvested, counted and seeded at 3000 cells per well in 96-well plates. A subset of wells contained media only (low control, “LC”).
Table B1 provides the growth media and number of cells seeded per well for the each cell line.
Compounds were dissolved in DMSO and serially diluted. Serially-diluted compound or a DMSO only control (high control, “HC”) was added to the plated cells in each well. Compounds were tested at concentrations of about 10 μM to 0.51 nM, using three-fold dilutions. The final proportion of DMSO never exceeded 0.1%.
Plates were placed in a 37° C., 5% CO2 incubator for 72 hours. Plates were then removed from the incubator and equilibrated for 15 minutes at room temperature. 40 μl of CellTiter Glo reagent (Promega) was added to measure the relative level of metabolically active cells by quantifying intracellular ATP concentrations. Plates were incubated for 30 minutes at room temperature, and luminescence was measured. Percent viability was normalized to a vehicle control only using the following formula: % viability=100×(Lumsample−LumLC)/(LumHC−LumLC). Graphical curves were fitted using a nonlinear regression model with a sigmoidal dose response.

T1 sequence (P04626 23-1255): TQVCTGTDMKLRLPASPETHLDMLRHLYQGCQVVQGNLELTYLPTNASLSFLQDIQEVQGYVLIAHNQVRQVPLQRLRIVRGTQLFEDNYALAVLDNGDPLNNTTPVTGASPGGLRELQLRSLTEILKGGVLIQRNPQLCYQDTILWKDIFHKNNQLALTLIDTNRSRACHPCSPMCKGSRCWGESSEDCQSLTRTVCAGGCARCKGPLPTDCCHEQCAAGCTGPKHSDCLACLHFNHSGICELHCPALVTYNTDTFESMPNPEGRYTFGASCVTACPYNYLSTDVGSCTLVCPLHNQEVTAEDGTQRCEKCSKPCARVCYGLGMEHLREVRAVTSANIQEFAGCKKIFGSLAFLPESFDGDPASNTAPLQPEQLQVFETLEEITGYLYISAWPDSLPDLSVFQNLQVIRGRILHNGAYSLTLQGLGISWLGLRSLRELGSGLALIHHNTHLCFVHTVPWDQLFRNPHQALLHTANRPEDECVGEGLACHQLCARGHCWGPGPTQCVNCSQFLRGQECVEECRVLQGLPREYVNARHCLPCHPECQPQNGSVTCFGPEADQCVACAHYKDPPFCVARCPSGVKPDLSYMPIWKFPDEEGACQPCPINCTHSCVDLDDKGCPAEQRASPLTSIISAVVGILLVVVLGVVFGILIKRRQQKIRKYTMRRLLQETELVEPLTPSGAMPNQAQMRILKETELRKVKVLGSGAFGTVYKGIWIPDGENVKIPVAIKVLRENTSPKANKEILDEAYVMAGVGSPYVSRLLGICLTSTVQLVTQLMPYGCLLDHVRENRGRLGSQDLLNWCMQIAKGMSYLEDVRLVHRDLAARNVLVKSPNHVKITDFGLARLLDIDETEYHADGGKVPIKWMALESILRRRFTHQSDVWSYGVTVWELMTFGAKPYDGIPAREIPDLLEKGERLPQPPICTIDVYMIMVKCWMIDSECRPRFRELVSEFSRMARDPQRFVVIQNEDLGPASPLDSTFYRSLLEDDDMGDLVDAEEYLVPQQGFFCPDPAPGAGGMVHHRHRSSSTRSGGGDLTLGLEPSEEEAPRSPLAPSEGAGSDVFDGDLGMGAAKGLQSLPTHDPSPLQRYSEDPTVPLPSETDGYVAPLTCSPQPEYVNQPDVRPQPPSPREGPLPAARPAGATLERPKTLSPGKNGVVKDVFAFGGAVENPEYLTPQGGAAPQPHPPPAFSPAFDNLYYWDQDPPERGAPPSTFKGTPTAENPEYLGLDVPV

| Structure (SMILES) | IC50 [1] | IC50 [2] | GI50 (Ba/F3 ERBB2 YVMA) |
| --- | --- | --- | --- |
| Cc1cc(Nc2ncnc3ccc4c(c23)OC[C@H]2CN(C(=O)/C=C/CN(C)C)CCN42)ccc1Oc1ccn2ncnc2c1 [Compound 18, (R,E)-1-(4-((4-([1,2,4]triazolo[1,5-a]pyridin-7-yloxy)-3-methylphenyl)amino)-6a,7,9,10-tetrahydropyrazino[1′,2′:4,5][1,4]oxazino[2,3-f]quinazolin-8(6H)-yl)-4-(dimethylamino)but-2-en-1-one] | 240 nM | > 10000 nM | 223 nM |
| C=CC(=O)N1CCN2c3ccc4ncnc(Nc5ccc(Oc6ccc7c(c6)ncn7C)c(C)c5)c4c3OC[C@H]2C1 [Compound 20, (R)-1-(4-((3-methyl-4-((1-methyl-1H-benzo[d]imidazol-5-yl)oxy)phenyl)amino)-6a,7,9,10-tetrahydropyrazino[1′,2′:4,5][1,4]oxazino[2,3-f]quinazolin-8(6H)-yl)prop-2-en-1-one] | 27.5 nM | 150 nM | 19.7 nM |
| C=CC(=O)N1CCN2C[C@H]1COc1c2ccc2ncnc(Nc3ccc(Oc4ccn5ncnc5c4)c(C)c3)c12 [Compound 24, 1-((3S)-13-((4-([1,2,4]triazolo[1,5-a]pyridin-7-yloxy)-3-methylphenyl)amino)-2,3,5,6-tetrahydro-4H-3,7-methano[1,4,7]oxadiazonino[2,3-f]quinazolin-4-yl)prop-2-en-1-one] | 430 nM | > 10000 nM | > 500 nM |
| Cc1cc(Nc2ncnc3ccc4c(c23)OC[C@@H]2CN4CCN2C(=O)/C=C/CN(C)C)ccc1Oc1ccn2ncnc2c1 [Compound 26, (E)-1-((3S)-13-((4-([1,2,4]triazolo[1,5-a]pyridin-7-yloxy)-3-methylphenyl)amino)-2,3,5,6-tetrahydro-4H-3,7-methano[1,4,7]oxadiazonino[2,3-f]quinazolin-4-yl)-4-(dimethylamino)but-2-en-1-one] | 434 nM | > 10000 nM | > 500 nM |
| C=CC(=O)N1CCN2C[C@H]1COc1c2ccc2ncnc(Nc3ccc(Oc4ccc5c(c4)ncn5C)c(C)c3)c12 [Compound 28, 1-((3S)-13-((3-methyl-4-((1-methyl-1H-benzo[d]imidazol-5-yl)oxy)phenyl)amino)-2,3,5,6-tetrahydro-4H-3,7-methano[1,4,7]oxadiazonino[2,3-f]quinazolin-4-yl)prop-2-en-1-one] | 417 nM | > 10000 nM | > 500 nM |
| C=CC(=O)N1CCN2C[C@@H]1COc1c2ccc2ncnc(Nc3ccc(Oc4ccc5c(c4)ncn5C)c(C)c3)c12 [Compound 29, 1-((3R)-13-((3-methyl-4-((1-methyl-1H-benzo[d]imidazol-5-yl)oxy)phenyl)amino)-2,3,5,6-tetrahydro-4H-3,7-methano[1,4,7]oxadiazonino[2,3-f]quinazolin-4-yl)prop-2-en-1-one] | 30.7 nM | 2930 nM | 23.9 nM |
| Cc1cc(Nc2ncnc3ccc4c(c23)OC[C@@H]2CN4CCN2C(=O)/C=C/CN(C)C)ccc1Oc1ccc2c(c1)ncn2C [Compound 30, (E)-4-(dimethylamino)-1-((3S)-13-((3-methyl-4-((1-methyl-1H-benzo[d]imidazol-5-yl)oxy)phenyl)amino)-2,3,5,6-tetrahydro-4H-3,7-methano[1,4,7]oxadiazonino[2,3-f]quinazolin-4-yl)but-2-en-1-one] | 304 nM | > 10000 nM | > 500 nM |
| CC#CC(=O)N1CCN2c3nc4c(Nc5ccc(Oc6ccn7ncnc7c6)c(C)c5)ncnc4cc3OC[C@@H]2C1 [Compound 32, (S)-1-(11-((4-([1,2,4]triazolo[1,5-a]pyridin-7-yloxy)-3-methylphenyl)amino)-1,2,4a,5-tetrahydropyrazino[1,2-d]pyrimido[4′,5′:5,6]pyrido[3,2-b][1,4]oxazin-3(4H)-yl)but-2-yn-1-one] | 51.4 nM | 4770 nM | 18.3 nM |
| Cc1cc(Nc2ncnc3cc4c(nc23)N2CCN(C)C[C@H]2CO4)ccc1Oc1ccn2ncnc2c1 [Compound 33, (S)—N-(4-([1,2,4]triazolo[1,5-a]pyridin-7-yloxy)-3-methylphenyl)-3-methyl-1,2,3,4,4a,5-hexahydropyrazino[1,2-d]pyrimido[4′,5′:5,6]pyrido[3,2-b][1,4]oxazin-11-amine] | 52.4 nM | > 10000 nM | 271 nM |

The remaining molecules from weak to strong by IC50 [1], led by results:

| IC50 [1] | IC50 [2] | Structure (SMILES) | GI50 (Ba/F3 ERBB2 YVMA) |
| --- | --- | --- | --- |
| 27.4 nM | 817 nM | Cc1cc(Nc2ncnc3ccc4c(c23)OC[C@@H]2CN(C(=O)/C=C/CN(C)C)CCN42)ccc1Oc1ccc2c(c1)ncn2C [Compound 23, (S,E)-4-(dimethylamino)-1-(4-((3-methyl-4-((1-methyl-1H-benzo[d]imidazol-5-yl)oxy)phenyl)amino)-6a,7,9,10-tetrahydropyrazino[1′,2′:4,5][1,4]oxazino[2,3-f]quinazolin-8(6H)-yl)but-2-en-1-one] | 13.8 nM |
| 22.8 nM | 544 nM | Cc1cc(Nc2ncnc3ccc4c(c23)OC[C@H]2CN(C(=O)/C=C/CN(C)C)CCN42)ccc1Oc1ccc2c(c1)ncn2C [Compound 22, (R,E)-4-(dimethylamino)-1-(4-((3-methyl-4-((1-methyl-1H-benzo[d]imidazol-5-yl)oxy)phenyl)amino)-6a,7,9,10-tetrahydropyrazino[1′,2′:4,5][1,4]oxazino[2,3-f]quinazolin-8(6H)-yl)but-2-en-1-one] | 2.12 nM |
| 22.7 nM | 575 nM | C=CC(=O)N1CCN2c3ccc4ncnc(Nc5ccc(Oc6ccc7c(c6)ncn7C)c(C)c5)c4c3OC[C@@H]2C1 [Compound 21, (S)-1-(4-((3-methyl-4-((1-methyl-1H-benzo[d]imidazol-5-yl)oxy)phenyl)amino)-6a,7,9,10-tetrahydropyrazino[1′,2′:4,5][1,4]oxazino[2,3-f]quinazolin-8(6H)-yl)prop-2-en-1-one] | 16.2 nM |
| 19.9 nM | 246 nM | Cc1cc(Nc2ncnc3ccc4c(c23)OC[C@H]2CN4CCN2C(=O)/C=C/CN(C)C)ccc1Oc1ccc2c(c1)ncn2C [Compound 31, (E)-4-(dimethylamino)-1-((3R)-13-((3-methyl-4-((1-methyl-1H-benzo[d]imidazol-5-yl)oxy)phenyl)amino)-2,3,5,6-tetrahydro-4H-3,7-methano[1,4,7]oxadiazonino[2,3-f]quinazolin-4-yl)but-2-en-1-one] | 12.6 nM |
| 11.5 nM | 1580 nM | C=CC(=O)N1CCN2C[C@@H]1COc1c2ccc2ncnc(Nc3ccc(Oc4ccn5ncnc5c4)c(C)c3)c12 [Compound 25, 1-((3R)-13-((4-([1,2,4]triazolo[1,5-a]pyridin-7-yloxy)-3-methylphenyl)amino)-2,3,5,6-tetrahydro-4H-3,7-methano[1,4,7]oxadiazonino[2,3-f]quinazolin-4-yl)prop-2-en-1-one] | 15.5 nM |
| 11.1 nM | 679 nM | Cc1cc(Nc2ncnc3ccc4c(c23)OC[C@@H]2CN(C(=O)/C=C/CN(C)C)CCN42)ccc1Oc1ccn2ncnc2c1 [Compound 19, (S,E)-1-(4-((4-([1,2,4]triazolo[1,5-a]pyridin-7-yloxy)-3-methylphenyl)amino)-6a,7,9,10-tetrahydropyrazino[1′,2′:4,5][1,4]oxazino[2,3-f]quinazolin-8(6H)-yl)-4-(dimethylamino)but-2-en-1-one formate] | 5 nM |
| 8.75 nM | 189 nM | Cc1cc(Nc2ncnc3ccc4c(c23)OC[C@H]2CN4CCN2C(=O)/C=C/CN(C)C)ccc1Oc1ccn2ncnc2c1 [Compound 27, (E)-1-((3R)-13-((4-([1,2,4]triazolo[1,5-a]pyridin-7-yloxy)-3-methylphenyl)amino)-2,3,5,6-tetrahydro-4H-3,7-methano[1,4,7]oxadiazonino[2,3-f]quinazolin-4-yl)-4-(dimethylamino)but-2-en-1-one] | 7.69 nM |
